Data from EPA's ToxRefDB 2.

Tests used:
rat [1] = conditions: Subchronic oral toxicity in rodents, wistar, Gavage/Intubation, dose end: 13 week, group: systemic
dog [2] = conditions: Subchronic oral toxicity in nonrodent, beagle, Gavage/Intubation, dose end: 13 week, group: systemic
dog [3] = conditions: Chronic toxicity; beagle; Oral; Feed; dose end: 104 week; group: systemic; systemic / clinical chemistry / [other] / [other] + systemic / pathology microscopic / liver / pigmentation + systemic / pathology …
rat [4] = conditions: Subchronic oral toxicity in rodents, wistar, Feed, dose end: 13 week, group: systemic, systemic / organ weight / spleen / absolute + systemic / organ weight / spleen / relative to body weight + systemic / pathology microscopic…
dog [5] = conditions: Subchronic oral toxicity in nonrodent, beagle, Capsule, dose end: 13 week, group: systemic, systemic / clinical chemistry / albumin / albumin + systemic / clinical chemistry / protein / protein + systemic / in life observation / …
rat [6] = conditions: Acute dermal toxicity, other, Topical, dose end: 28 day, group: systemic, systemic / pathology microscopic / thymus / necrosis
mouse [7] = conditions: Carcinogenicity, cd1, Oral, Feed, dose end: 80 week, group: systemic
rat [8] = conditions: Chronic toxicity, other, Oral, Feed, dose end: 102 week, group: systemic
rat [9] = conditions: Chronic toxicity; sprague dawley; Oral; Gavage/Intubation; dose end: 6 month; group: systemic; systemic / clinical chemistry / creatinine / creatinine
dog [10] = conditions: Chronic toxicity, beagle, Oral, Gavage/Intubation, dose end: 52 week, group: systemic
rat [11] = conditions: Subchronic oral toxicity in rodents, sprague dawley, Feed, dose end: 13 week, group: systemic
dog [12] = conditions: Subchronic oral toxicity in nonrodent, beagle, Gavage/Intubation, dose end: 6 month, group: systemic
mouse [13] = conditions: Subchronic oral toxicity in rodents, cd1, Feed, dose end: 14 week, group: systemic
[14] = systemic / clinical chemistry / albumin / albumin + systemic / clinical chemistry / chloride / chloride + systemic / clinical chemistry / …
[15] = systemic / clinical chemistry / albumin / albumin + systemic / clinical chemistry / protein / protein + systemic / in life observation / …
[16] = systemic / clinical chemistry / alanine aminotransferase (alt/sgpt) / alanine aminotransferase (alt/sgpt) + systemic / in life observation…
[17] = systemic / organ weight / adrenal gland / absolute
[18] = systemic / pathology microscopic / stomach / ulcer + systemic / hematology / anemia / anemia - nos + systemic / hematology / hematocrit (hct…
[19] = systemic / clinical chemistry / [other] / [other]
[20] = systemic / clinical chemistry / [other] / [other] + systemic / pathology microscopic / intestine small / pigmentation + systemic / pathology…
[21] = systemic / organ weight / heart / absolute
[22] = systemic / organ weight / heart / absolute + systemic / clinical chemistry / alkaline phosphatase (alp/alk) / alkaline phosphatase (alp/alk…
[23] = systemic / clinical chemistry / creatinine / creatinine
[24] = systemic / clinical chemistry / creatinine / creatinine + systemic / hematology / reticulocyte / reticulocyte + systemic / organ weight / …
[25] = systemic / organ weight / adrenal gland / relative to body weight + systemic / organ weight / heart / absolute + systemic / clinical …
[26] = systemic / clinical chemistry / creatinine / creatinine + systemic / hematology / hematocrit (hct) / hematocrit (hct) + systemic / …

## CCN(C(=O)c1cc(C)cc(OC[C@H](C)Nc2ccncc2)c1)C(C)C.Cc1ccc(S(=O)(=O)O)cc1
Rat [1]; [14]
  LOAEL: > 40 mg/kg/day
  NOAEL: ≥ 40 mg/kg/day
Rat [1]; [15]
  LEL: 12 mg/kg/day
  NEL: < 12 mg/kg/day
Dog [2]; [16]
  LOAEL: > 20 mg/kg/day
  NOAEL: ≥ 20 mg/kg/day
Dog [2]; [17]
  LEL: 4 mg/kg/day
  NEL: < 4 mg/kg/day

## Oc1cccc2cccnc12.Oc1cccc2cccnc12.[Cu] [Copper-8-hydroxyquinoline (1:2)]
Dog [3]
  LEL: 25 mg/kg/day
  LOAEL: 25 mg/kg/day
  NEL: 5 mg/kg/day
  NOAEL: 5 mg/kg/day
Rat [4]
  LEL: 100 mg/kg/day
  LOAEL: 100 mg/kg/day
  NEL: 30 mg/kg/day
  NOAEL: 30 mg/kg/day
Dog [5]
  LEL: 50 mg/kg/day
  LOAEL: 50 mg/kg/day
  NEL: 5 mg/kg/day
  NOAEL: 5 mg/kg/day
Rat [6]
  LEL: 1000 mg/kg/day
  LOAEL: 1000 mg/kg/day
  NEL: 200 mg/kg/day
  NOAEL: 200 mg/kg/day
Mouse [7]; systemic / pathology microscopic / stomach / ulcer
  LOAEL: 208 mg/kg/day
Mouse [7]; [18]
  NEL: 57.1 mg/kg/day
  NOAEL: 57.1 mg/kg/day
Mouse [7]; systemic / pathology microscopic / stomach / ulcer + systemic / pathology microscopic / spleen / hematopoietic cell proliferation
  LEL: 208 mg/kg/day
Rat [8]; [19]
  LEL: 0.25 mg/kg/day
  NEL: < 0.25 mg/kg/day
Rat [8]; [20]
  LOAEL: 100 mg/kg/day
  NOAEL: 25 mg/kg/day

## CC(=O)c1ccc2c(c1)[C@H](NC(=O)c1ccc(F)cc1)[C@@H](O)C(C)(C)O2 [Carabersat]
Rat [9]
  LEL: 200 mg/kg/day
  LOAEL: > 2000 mg/kg/day
  NEL: 20 mg/kg/day
  NOAEL: ≥ 2000 mg/kg/day
Dog [10]; [21]
  LEL: 20 mg/kg/day
  NEL: < 20 mg/kg/day
Dog [10]; [22]
  LOAEL: > 1000 mg/kg/day
  NOAEL: ≥ 1000 mg/kg/day
Rat [11]; [23]
  LEL: 20 mg/kg/day
  NEL: < 20 mg/kg/day
Rat [11]; [24]
  LOAEL: > 2000 mg/kg/day
  NOAEL: ≥ 2000 mg/kg/day
Dog [12]; systemic / organ weight / adrenal gland / relative to body weight + systemic / clinical chemistry / alkaline phosphatase (alp/alk) / …
  LEL: 200 mg/kg/day
Dog [12]; systemic / organ weight / adrenal gland / relative to body weight + systemic / organ weight / heart / absolute
  NEL: 20 mg/kg/day
Dog [12]; [25]
  LOAEL: > 1000 mg/kg/day
  NOAEL: ≥ 1000 mg/kg/day
Mouse [13]; [23]
  LEL: 200 mg/kg/day
Mouse [13]; [26]
  LOAEL: > 2000 mg/kg/day
  NEL: 20 mg/kg/day
  NOAEL: ≥ 2000 mg/kg/day
